# Laboratory results as given in patent US20260184713A1, “KINASE INHIBITORS” (The United States of America, as represented by the …, priority 2022, published 2026).
# Read-outs that look alike come from different tables or passages of the source.
# How the values were obtained:
# Assay in all cases: HOTSPOT radiometric kinase assay
# MST3 = biological target: T1, MST3 (Homo sapiens, UniProt Q9Y6E0); assay type: biochemical; conditions: 10 μM ATP
# T1 construct: purchased Reaction Biology Corp
# EPHB3 = biological target: T2, EPHB3 (Homo sapiens, UniProt P54753); assay type: biochemical; conditions: 10 μM ATP
# T2 construct: purchased Reaction Biology Corp
# CAMK1δ = CAMK1δ (Homo sapiens, UniProt Q8IU85)
# DYRK1A = biological target: T3, DYRK1A (Homo sapiens, UniProt Q13627); assay type: biochemical
# T3 construct: purchased Reaction Biology Corp
# P70S6K = biological target: T4, P70S6K (Homo sapiens, UniProt P23443); assay type: biochemical; conditions: 10 μM ATP
# T4 construct: purchased Reaction Biology Corp
# DYRK3 = biological target: T5, DYRK3 (Homo sapiens, UniProt O43781); assay type: biochemical
# T5 construct: purchased Reaction Biology Corp
# T5 sequence (O43781 1-588): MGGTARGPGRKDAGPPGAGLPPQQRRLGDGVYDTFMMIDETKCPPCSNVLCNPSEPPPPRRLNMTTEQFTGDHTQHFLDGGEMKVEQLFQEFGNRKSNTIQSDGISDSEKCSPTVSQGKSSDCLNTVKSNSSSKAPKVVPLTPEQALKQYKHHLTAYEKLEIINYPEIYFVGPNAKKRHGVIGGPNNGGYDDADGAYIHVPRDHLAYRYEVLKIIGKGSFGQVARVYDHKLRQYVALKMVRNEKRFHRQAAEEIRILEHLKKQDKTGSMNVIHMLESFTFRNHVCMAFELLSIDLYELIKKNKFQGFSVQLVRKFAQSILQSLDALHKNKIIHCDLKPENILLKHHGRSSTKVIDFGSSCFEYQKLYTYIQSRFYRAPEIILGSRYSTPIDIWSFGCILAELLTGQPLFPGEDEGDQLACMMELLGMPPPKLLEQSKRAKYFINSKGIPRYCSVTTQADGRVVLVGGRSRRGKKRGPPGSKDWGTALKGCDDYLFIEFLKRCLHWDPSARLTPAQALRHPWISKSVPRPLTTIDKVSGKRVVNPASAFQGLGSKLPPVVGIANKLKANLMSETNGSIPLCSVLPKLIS
# smMLCK = biological target: T6, smMLCK (Homo sapiens, UniProt Q15746); assay type: biochemical; conditions: 10 μM ATP
# T6 construct: purchased Reaction Biology Corp
# RSK1 = biological target: T7, RSK1 (Homo sapiens, UniProt Q15418); assay type: biochemical; conditions: 10 μM ATP
# T7 construct: purchased Reaction Biology Corp
# ROCK2 = biological target: T8, ROCK2 (Homo sapiens, UniProt O75116); assay type: biochemical; conditions: 10 μM ATP
# T8 construct: purchased Reaction Biology Corp
# FLT1/VEGFR1 = FLT1/VEGFR1 (Homo sapiens, UniProt P17948)
# IRAK2 = biological target: T9, IRAK2 (Homo sapiens, UniProt O43187); assay type: biochemical; conditions: 10 μM ATP
# T9 construct: purchased Reaction Biology Corp
# CLK2 = biological target: T10, CLK2 (Homo sapiens, UniProt P49760); assay type: biochemical; conditions: 10 μM ATP
# T10 construct: purchased Reaction Biology Corp
# PKCα = PKCα (Homo sapiens, UniProt P17252)
# LATS2 = biological target: T11, LATS2 (Homo sapiens, UniProt Q9NRM7); assay type: biochemical; conditions: 10 μM ATP
# T11 construct: purchased Reaction Biology Corp
# ROCK1 = biological target: T12, ROCK1 (Homo sapiens, UniProt Q13464); assay type: biochemical; conditions: 10 μM ATP
# T12 construct: purchased Reaction Biology Corp
# CLK3 = biological target: T13, CLK3 (Homo sapiens, UniProt P49761); assay type: biochemical; conditions: 10 μM ATP
# T13 construct: purchased Reaction Biology Corp. (Malvern, PA, USA)
# PKN1 = biological target: T14, PKN1 (Homo sapiens, UniProt Q16512); assay type: biochemical; conditions: 10 μM ATP
# T14 construct: purchased Reaction Biology Corp
# DYRK4 = biological target: T15, DYRK4 (Homo sapiens, UniProt Q9NR20); assay type: biochemical; conditions: 10 μM ATP
# T15 construct: purchased Reaction Biology Corp
# PKCμ/PKD1 = biological target: T16, PKCμ/PKD1 (Homo sapiens, UniProt Q15139); assay type: biochemical; conditions: 10 μM ATP
# T16 construct: purchased Reaction Biology Corp
# PKD2 = biological target: T17, PKD2 (Homo sapiens, UniProt Q9BZL6); assay type: biochemical; conditions: 10 μM ATP
# T17 construct: purchased Reaction Biology Corp
# PKCγ = biological target: T18, PKCγ (Homo sapiens, UniProt P05129); assay type: biochemical
# T18 construct: purchased Reaction Biology Corp
# YSK1 = biological target: T19, YSK1 (Homo sapiens, UniProt O00506); assay type: biochemical; conditions: 50 nM, 10 μM ATP
# T19 construct: purchased Reaction Biology Corp
# PKCδ = biological target: T20, PKCδ (Homo sapiens, UniProt Q05655); assay type: biochemical
# T20 construct: purchased Reaction Biology Corp
# HASPIN = biological target: T21, HASPIN (Homo sapiens, UniProt Q8TF76); assay type: biochemical; conditions: 10 μM ATP
# T21 construct: purchased Reaction Biology Corp
# CK1α1 = CK1α1 (Homo sapiens, UniProt P48729)
# T20 sequence (Q05655 whole entry): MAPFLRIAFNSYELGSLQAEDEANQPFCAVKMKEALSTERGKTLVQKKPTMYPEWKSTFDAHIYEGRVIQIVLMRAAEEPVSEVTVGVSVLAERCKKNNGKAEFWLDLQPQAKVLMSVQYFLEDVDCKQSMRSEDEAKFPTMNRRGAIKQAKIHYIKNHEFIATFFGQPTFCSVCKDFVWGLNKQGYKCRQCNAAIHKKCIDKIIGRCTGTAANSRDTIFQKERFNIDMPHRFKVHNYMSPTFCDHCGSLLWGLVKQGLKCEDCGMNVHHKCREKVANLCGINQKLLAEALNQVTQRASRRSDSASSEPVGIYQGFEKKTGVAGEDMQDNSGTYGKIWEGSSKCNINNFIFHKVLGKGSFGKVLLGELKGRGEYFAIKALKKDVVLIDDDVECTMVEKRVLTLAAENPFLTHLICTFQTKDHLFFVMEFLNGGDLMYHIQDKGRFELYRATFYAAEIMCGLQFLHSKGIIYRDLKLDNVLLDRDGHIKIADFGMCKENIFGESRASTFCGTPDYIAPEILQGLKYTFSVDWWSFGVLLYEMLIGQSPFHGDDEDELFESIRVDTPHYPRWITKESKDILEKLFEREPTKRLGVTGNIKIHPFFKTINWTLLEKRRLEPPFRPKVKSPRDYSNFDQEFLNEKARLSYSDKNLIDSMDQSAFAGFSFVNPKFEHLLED
# T17 sequence (Q9BZL6 whole entry): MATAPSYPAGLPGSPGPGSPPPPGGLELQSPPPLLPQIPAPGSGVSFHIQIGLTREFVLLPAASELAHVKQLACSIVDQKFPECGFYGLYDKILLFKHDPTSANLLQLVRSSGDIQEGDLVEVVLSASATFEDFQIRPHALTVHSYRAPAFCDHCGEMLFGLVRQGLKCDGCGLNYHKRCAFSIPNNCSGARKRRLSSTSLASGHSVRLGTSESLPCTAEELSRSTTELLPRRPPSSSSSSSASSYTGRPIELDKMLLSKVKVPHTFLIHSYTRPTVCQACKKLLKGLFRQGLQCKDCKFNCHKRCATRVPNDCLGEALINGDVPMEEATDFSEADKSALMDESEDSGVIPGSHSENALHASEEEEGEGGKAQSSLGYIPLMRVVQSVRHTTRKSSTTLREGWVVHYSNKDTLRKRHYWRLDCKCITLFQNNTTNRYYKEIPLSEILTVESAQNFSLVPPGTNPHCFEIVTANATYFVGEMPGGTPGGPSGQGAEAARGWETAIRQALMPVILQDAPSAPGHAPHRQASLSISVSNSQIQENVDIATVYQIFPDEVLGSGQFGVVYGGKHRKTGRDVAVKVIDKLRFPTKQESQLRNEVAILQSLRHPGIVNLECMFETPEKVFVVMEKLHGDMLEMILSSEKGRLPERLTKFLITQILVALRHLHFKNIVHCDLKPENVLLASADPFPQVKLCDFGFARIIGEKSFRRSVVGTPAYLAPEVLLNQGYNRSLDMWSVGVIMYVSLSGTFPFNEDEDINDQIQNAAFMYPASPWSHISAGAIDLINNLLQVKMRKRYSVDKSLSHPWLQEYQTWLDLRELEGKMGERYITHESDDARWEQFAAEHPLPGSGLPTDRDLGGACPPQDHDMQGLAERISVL
# T7 sequence (Q15418 whole entry): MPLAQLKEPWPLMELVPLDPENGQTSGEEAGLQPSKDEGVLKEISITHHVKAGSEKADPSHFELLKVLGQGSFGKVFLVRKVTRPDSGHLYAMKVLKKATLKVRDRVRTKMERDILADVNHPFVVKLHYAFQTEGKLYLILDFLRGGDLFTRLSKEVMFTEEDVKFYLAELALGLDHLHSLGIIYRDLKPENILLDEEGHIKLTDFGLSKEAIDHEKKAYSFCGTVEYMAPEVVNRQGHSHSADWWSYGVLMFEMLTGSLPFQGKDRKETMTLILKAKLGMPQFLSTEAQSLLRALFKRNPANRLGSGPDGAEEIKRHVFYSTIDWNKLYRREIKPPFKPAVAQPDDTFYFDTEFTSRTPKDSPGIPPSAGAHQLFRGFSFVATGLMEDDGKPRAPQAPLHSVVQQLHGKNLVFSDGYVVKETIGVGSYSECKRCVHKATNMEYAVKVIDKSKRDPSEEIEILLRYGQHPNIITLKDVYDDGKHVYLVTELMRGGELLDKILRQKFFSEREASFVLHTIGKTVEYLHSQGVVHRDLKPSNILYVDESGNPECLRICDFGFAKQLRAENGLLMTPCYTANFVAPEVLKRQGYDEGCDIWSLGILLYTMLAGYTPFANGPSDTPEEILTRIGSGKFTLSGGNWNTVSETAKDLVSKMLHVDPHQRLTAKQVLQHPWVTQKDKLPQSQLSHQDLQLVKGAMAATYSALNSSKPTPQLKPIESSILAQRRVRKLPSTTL
# FLT1/VEGFR1, sequence (P17948 27-1338): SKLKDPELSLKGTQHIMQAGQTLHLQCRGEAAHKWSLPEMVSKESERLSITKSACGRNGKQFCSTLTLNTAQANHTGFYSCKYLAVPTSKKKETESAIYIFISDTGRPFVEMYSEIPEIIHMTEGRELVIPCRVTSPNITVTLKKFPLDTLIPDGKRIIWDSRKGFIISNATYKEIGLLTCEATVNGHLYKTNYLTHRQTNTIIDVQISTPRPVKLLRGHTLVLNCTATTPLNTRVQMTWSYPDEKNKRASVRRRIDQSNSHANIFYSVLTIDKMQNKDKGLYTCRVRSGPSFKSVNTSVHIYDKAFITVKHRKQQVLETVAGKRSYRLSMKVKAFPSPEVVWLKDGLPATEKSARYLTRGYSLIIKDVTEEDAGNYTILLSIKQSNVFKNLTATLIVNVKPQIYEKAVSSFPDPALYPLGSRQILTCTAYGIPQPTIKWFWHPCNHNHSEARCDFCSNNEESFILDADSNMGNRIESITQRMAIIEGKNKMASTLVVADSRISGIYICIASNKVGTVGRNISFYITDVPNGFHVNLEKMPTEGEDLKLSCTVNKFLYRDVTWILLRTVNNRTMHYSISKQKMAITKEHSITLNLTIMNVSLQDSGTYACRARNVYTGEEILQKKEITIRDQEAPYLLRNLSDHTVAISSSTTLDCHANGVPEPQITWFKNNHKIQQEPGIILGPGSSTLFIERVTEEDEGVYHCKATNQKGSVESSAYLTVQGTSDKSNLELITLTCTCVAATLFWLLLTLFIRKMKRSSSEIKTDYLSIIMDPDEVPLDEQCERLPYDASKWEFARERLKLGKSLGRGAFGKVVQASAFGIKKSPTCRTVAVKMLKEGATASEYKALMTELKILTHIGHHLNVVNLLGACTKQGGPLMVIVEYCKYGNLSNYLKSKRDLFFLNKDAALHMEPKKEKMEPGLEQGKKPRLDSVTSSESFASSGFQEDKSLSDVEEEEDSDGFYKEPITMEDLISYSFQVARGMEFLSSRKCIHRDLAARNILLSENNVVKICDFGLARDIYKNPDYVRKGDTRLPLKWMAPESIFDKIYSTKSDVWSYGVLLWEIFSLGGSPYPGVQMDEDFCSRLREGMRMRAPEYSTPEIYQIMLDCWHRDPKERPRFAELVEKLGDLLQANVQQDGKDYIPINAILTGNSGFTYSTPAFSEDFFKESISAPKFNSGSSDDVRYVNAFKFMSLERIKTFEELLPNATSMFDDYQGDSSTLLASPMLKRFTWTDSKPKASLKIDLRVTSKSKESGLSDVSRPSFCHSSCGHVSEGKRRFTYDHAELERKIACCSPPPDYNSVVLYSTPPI
structure (smiles),measurement,setting,value
"Cn1cncc1C1=CN(c2ncnc3nc[nH]c23)CCS1 [Compound 1, Aplithianine A]",inhibition at 0.05 µM,MST3; 50 nM,13.2%
same,inhibition at 2 µM,MST3; 2 μM,-15.6%
same,inhibition at 0.05 µM,EPHB3; 50 nM,12.8%
same,inhibition at 2 µM,EPHB3; 2 μM,20.2%
same,IC50,CAMK1δ,18000 to 65000 nM
same,IC50,"CAMK1δ; read-out: CAMK1δ IC50, 10 μM ATP",52300 nM
same,inhibition at 0.05 µM,"DYRK1A; 50 nM, 10 μM ATP",23.1%
same,inhibition at 2 µM,"DYRK1A; 2 μM, 10 μM ATP",95.4%
same,IC50,"DYRK1A; 10 μM ATP, read-out: DYRK1A IC50",119 nM
same,DYRK1A Differential (as compared to PKG1a),DYRK1A; IC50 (kinase)/IC50 (PKG1a),10.01
same,IC50,"DYRK1A; Table 4 dose-response, read-out: DYRK1A IC50 Values",114 nM
same,inhibition at 0.05 µM,P70S6K; 50 nM,14%
same,inhibition at 2 µM,P70S6K; 2 μM,87.3%
same,inhibition at 0.05 µM,"DYRK3; 50 nM, 10 μM ATP",15.9%
same,inhibition at 2 µM,"DYRK3; 2 μM, 10 μM ATP",90.9%
same,IC50,"DYRK3; 10 μM ATP, read-out: DYRK3 IC50",202 nM
same,DYRK3 Differential (as compared to PKG1a),DYRK3; IC50 (kinase)/IC50 (PKG1a),19.13
same,IC50,"DYRK3; Table 4 dose-response, read-out: DYRK3 IC50 Values",218 nM
same,inhibition at 0.05 µM,smMLCK; 50 nM,18.2%
same,inhibition at 2 µM,smMLCK; 2 μM,91.1%
same,inhibition at 0.05 µM,RSK1; 50 nM,13%
same,inhibition at 2 µM,RSK1; 2 μM,82%
same,inhibition at 0.05 µM,ROCK2; 50 nM,19.6%
same,inhibition at 2 µM,ROCK2; 2 μM,93.3%
same,IC50,FLT1/VEGFR1,18000 to 65000 nM
same,IC50,"FLT1/VEGFR1; read-out: FLT1/VEGFR1 IC50, 10 μM ATP",18800 nM
same,inhibition at 0.05 µM,IRAK2; 50 nM,30.7%
same,inhibition at 2 µM,IRAK2; 2 μM,85%
same,inhibition at 2 µM,CLK2,97.8%
same,IC50,PKCα,800 to 6600 nM
same,IC50,"PKCα; read-out: PKCα IC50, 10 μM ATP",1320 nM
same,inhibition at 0.05 µM,LATS2; 50 nM,34.2%
same,inhibition at 2 µM,LATS2; 2 μM,92.9%
same,inhibition at 0.05 µM,ROCK1; 50 nM,27%
same,inhibition at 2 µM,ROCK1; 2 μM,88.6%
same,IC50,CLK3,14100 nM
same,inhibition at 0.05 µM,PKN1; 50 nM,18.8%
same,inhibition at 2 µM,PKN1; 2 μM,87.7%
same,IC50,DYRK4,15200 nM
same,inhibition at 0.05 µM,PKCμ/PKD1; 50 nM,21.3%
same,inhibition at 2 µM,PKCμ/PKD1; 2 μM,89.2%
same,inhibition at 0.05 µM,PKD2; 50 nM,38.2%
same,inhibition at 2 µM,PKD2; 2 μM,93.1%
same,inhibition at 0.05 µM,"PKCγ; 50 nM, 10 μM ATP",30.5%
same,inhibition at 2 µM,"PKCγ; 2 μM, 10 μM ATP",92.8%
same,IC50,"PKCγ; 10 μM ATP, read-out: PKCγ IC50",234 nM
same,PKCg Differential (as compared to PKG1a),PKCγ; IC50 (kinase)/IC50 (PKG1a),13.99
same,IC50,"PKCγ; Table 4 dose-response, read-out: PKCg IC50 Values",159 nM
same,inhibition at 0.05 µM,YSK1,13.5%
same,inhibition at 0.05 µM,"PKCδ; 50 nM, 10 μM ATP",12.6%
same,inhibition at 2 µM,"PKCδ; 2 μM, 10 μM ATP",81.1%
same,IC50,"PKCδ; 10 μM ATP, read-out: PKCδ IC50",184 nM
same,PKCd Differential (as compared to PKG1a),PKCδ; IC50 (kinase)/IC50 (PKG1a),16.77
same,IC50,"PKCδ; Table 4 dose-response, read-out: PKCd IC50 Values",191 nM
same,inhibition at 0.05 µM,HASPIN; 50 nM,25.6%
same,inhibition at 2 µM,HASPIN; 2 μM,88.4%
same,IC50,CK1α1,800 to 6600 nM
same,IC50,"CK1α1; read-out: CK1α1 IC50, 10 μM ATP",1830 nM
